Where two headings read alike, the source gives them in different places.
Assays:
Assay type in all cases: cell-based
[1] = system: Bacillus pumilus (CN 607); assay: MIC in broth, Gram+ strains; conditions: B. pumilus (CN 607), Mueller-Hinton broth, 37° C., 18 hours, read-out: Minimal Inhibitory Concentration (MIC)
Description: (§1) Evaluation of the Minimal Inhibitory Concentration (MIC) in broth of 15 new substances for Gram+ bacterial strains.
(§2) The following strains were used: Staphylococcus aureus (4); Streptococcus faecalis (8); Bacillus pumilus (1); Bacillus subtilis (1).
(§3) MICs were determined by a standard microdilution test, using serial two-fold dilutions of the substances in Mueller-Hinton broth.
(§4) The inoculum was prepared from an overnight culture in Mueller-Hinton broth matching the 0.5 Mc Farland (turbidity) standard (BRAY W. E., Clinical Laboratory Methods, 5th Ed. C. V. MOSBY, St. Louis, Mo. 1957), and was adjusted to a final concentration of 5.0×10^4 colony-forming units/ml.
(§5) Equal volumes (0.1 ml) of both bacterial suspensions and substance solutions were distributed in microtiter plates (Falcon, 96 wells, round bottom), and then placed in a humidified incubator (37° C.) for 18 hours.
(§6) The results, in terms of MIC values, resistant strain number and mean MIC values versus susceptible strains, are illustrated in Tables 1-6.

[2] = system: Bacillus subtilis (ATCC 6051); assay: MIC in broth, Gram+ strains; conditions: ATCC6051, B. subtilis (ATCC 6051), Mueller-Hinton broth, 37° C., 18 hours, read-out: Minimal Inhibitory Concentration (MIC)
Description: as §1, §2, §3, §4, §5, §6

[3] = system: Staphylococcus aureus (303); assay: MIC in broth, Gram+ strains; conditions: S. aureus (303), Mueller-Hinton broth, 37° C., 18 hours, read-out: Minimal Inhibitory Concentration (MIC)
Description: as §1, §2, §3, §4, §5, §6

[4] = system: Staphylococcus aureus (306 MR); assay: MIC in broth, Gram+ strains; conditions: S. aureus (306 MR), Mueller-Hinton broth, 37° C., 18 hours, read-out: Minimal Inhibitory Concentration (MIC)
Description: as §1, §2, §3, §4, §5, §6

[5] = system: Staphylococcus aureus (ATCC 14154); assay: MIC in broth, Gram+ strains; conditions: ATCC14154, S. aureus (ATCC 14154), Mueller-Hinton broth, 37° C., 18 hours, read-out: Minimal Inhibitory Concentration (MIC)
Description: as §1, §2, §3, §4, §5, §6

[6] = system: Staphylococcus aureus (LC1); assay: MIC in broth, Gram+ strains; conditions: S. aureus (LC1), Mueller-Hinton broth, 37° C., 18 hours, read-out: Minimal Inhibitory Concentration (MIC)
Description: as §1, §2, §3, §4, §5, §6

[7] = system: Streptococcus faecalis (501); assay: MIC in broth, Gram+ strains; conditions: Enterococcus faecalis; S. faecalis (501), Mueller-Hinton broth, 37° C., 18 hours; read-out: Minimal Inhibitory Concentration (MIC)
Description: as §1, §2, §3, §4, §5, §6

[8] = system: Streptococcus faecalis (505); assay: MIC in broth, Gram+ strains; conditions: Enterococcus faecalis; S. faecalis (505), Mueller-Hinton broth, 37° C., 18 hours; read-out: Minimal Inhibitory Concentration (MIC)
Description: as §1, §2, §3, §4, §5, §6

[9] = system: Streptococcus faecalis (509); assay: MIC in broth, Gram+ strains; conditions: Enterococcus faecalis; S. faecalis (509), Mueller-Hinton broth, 37° C., 18 hours; read-out: Minimal Inhibitory Concentration (MIC)
Description: as §1, §2, §3, §4, §5, §6

[10] = system: Streptococcus faecalis (516); assay: MIC in broth, Gram+ strains; conditions: Enterococcus faecalis; S. faecalis (516), Mueller-Hinton broth, 37° C., 18 hours; read-out: Minimal Inhibitory Concentration (MIC)
Description: as §1, §2, §3, §4, §5, §6

[11] = system: Streptococcus faecalis (518); assay: MIC in broth, Gram+ strains; conditions: Enterococcus faecalis; S. faecalis (518), Mueller-Hinton broth, 37° C., 18 hours; read-out: Minimal Inhibitory Concentration (MIC)
Description: as §1, §2, §3, §4, §5, §6

[12] = system: Streptococcus faecalis (519); assay: MIC in broth, Gram+ strains; conditions: Enterococcus faecalis; S. faecalis (519), Mueller-Hinton broth, 37° C., 18 hours; read-out: Minimal Inhibitory Concentration (MIC)
Description: as §1, §2, §3, §4, §5, §6

[13] = system: Streptococcus faecalis (R 2); assay: MIC in broth, Gram+ strains; conditions: Enterococcus faecalis; S. faecalis (R 2), Mueller-Hinton broth, 37° C., 18 hours; read-out: Minimal Inhibitory Concentration (MIC)
Description: as §1, §2, §3, §4, §5, §6

[14] = system: Streptococcus faecalis (UM); assay: MIC in broth, Gram+ strains; conditions: Enterococcus faecalis; S. faecalis (UM), Mueller-Hinton broth, 37° C., 18 hours; read-out: Minimal Inhibitory Concentration (MIC)
Description: as §1, §2, §3, §4, §5, §6

Gram+ bacterial strains = assay: Mean MIC in broth and resistant strain number, Gram+ strains; conditions: 18 h, versus susceptible strains
Description: as §1, §2, §3, §4, §5, §6

Escherichia coli (92 F) = assay: MIC in broth, Gram- strains; conditions: 18 h, E. coli (92 F), read-out: Minimal Inhibitory Concentration (MIC)
Description: as §3, §4, §5
(§7) Evaluation of the Minimal Inhibitory Concentration (MIC) in broth of 16 new substances for Gram- bacterial strains.
(§8) The following strains were used: Enterobacter (1), Escherichia (3), Klebsiella (3), Proteus (3); Pseudomonas (2); Salmonella (2), Serratia (1).

Escherichia coli (R 57B) = assay: MIC in broth, Gram- strains; conditions: 18 h, E. coli (R 57B), read-out: Minimal Inhibitory Concentration (MIC)
Description: as §3, §4, §5, §7, §8

[15] = system: Klebsiella aerogenes (SH 1082); assay: MIC in broth, Gram- strains; conditions: 18 h, read-out: Minimal Inhibitory Concentration (MIC)
Description: as §3, §4, §5, §7, §8

Klebsiella oxytoca (552) = assay: MIC in broth, Gram- strains; conditions: 18 h, read-out: Minimal Inhibitory Concentration (MIC)
Description: as §3, §4, §5, §7, §8

[16] = system: Klebsiella pneumoniae (7823); assay: MIC in broth, Gram- strains; conditions: 18 h, read-out: Minimal Inhibitory Concentration (MIC)
Description: as §3, §4, §5, §7, §8

Proteus mirabilis (32) = assay: MIC in broth, Gram- strains; conditions: 18 h, read-out: Minimal Inhibitory Concentration (MIC)
Description: as §3, §4, §5, §7, §8

Proteus morganii (D.S.) = assay: MIC in broth, Gram- strains; conditions: Morganella morganii, 18 h, read-out: Minimal Inhibitory Concentration (MIC)
Description: as §3, §4, §5, §7, §8

Proteus vulgaris (UM) = assay: MIC in broth, Gram- strains; conditions: 18 h, read-out: Minimal Inhibitory Concentration (MIC)
Description: as §3, §4, §5, §7, §8

[17] = system: Pseudomonas aeruginosa (10 E); assay: MIC in broth, Gram- strains; conditions: 18 h, read-out: Minimal Inhibitory Concentration (MIC)
Description: as §3, §4, §5, §7, §8

[18] = system: Pseudomonas aeruginosa (3 E); assay: MIC in broth, Gram- strains; conditions: 18 h, read-out: Minimal Inhibitory Concentration (MIC)
Description: as §3, §4, §5, §7, §8

Salmonella typhi (J) = assay: MIC in broth, Gram- strains; conditions: Salmonella enterica, 18 h, read-out: Minimal Inhibitory Concentration (MIC)
Description: as §3, §4, §5, §7, §8

[19] = system: Salmonella typhimurium (D.S.); assay: MIC in broth, Gram- strains; conditions: Salmonella enterica, 18 h, read-out: Minimal Inhibitory Concentration (MIC)
Description: as §3, §4, §5, §7, §8

Gram- bacterial strains = assay: Mean MIC in broth and resistant strain number, Gram- strains; conditions: 18 h, read-out: Mean MIC values
Description: as §3, §4, §5, §7, §8

Compound	MIC [1]	MIC [2]	MIC [3]	MIC [4]	MIC [5]	MIC [6]	MIC [7]	MIC [8]	MIC [9]	MIC [10]	MIC [11]	MIC [12]	MIC [13]	MIC [14]	MIC (Gram+ bacterial strains)	MIC (Escherichia coli (92 F))	MIC (Escherichia coli (R 57B))	MIC [15]	MIC (Klebsiella oxytoca (552))	MIC [16]	further results
CCCCCCCCCCCOC(=O)CC(C[N+](C)(C)C)OC(=O)CCC(C)C (centres unmarked) [ST 1034]	1.56 µg/mL	3.12 µg/mL	3.12 µg/mL	3.12 µg/mL	3.12 µg/mL	1.56 µg/mL	1.56 µg/mL	1.56 µg/mL	1.56 µg/mL	1.56 µg/mL	1.56 µg/mL	1.56 µg/mL	1.56 µg/mL	1.56 µg/mL	2 µg/mL	25 µg/mL	50 µg/mL	25 µg/mL	12.5 µg/mL	12.5 µg/mL	MIC (Proteus mirabilis (32)): > 100 µg/mL; MIC (Proteus morganii (D.S.)): 100 µg/mL; MIC (Proteus vulgaris (UM)): > 100 µg/mL; MIC [17]: 50 µg/mL; MIC [18]: 50 µg/mL; MIC (Salmonella typhi (J)): 25 µg/mL; MIC [19]: 100 µg/mL; MIC (Gram- bacterial strains; Gram- strains, versus susceptible strains): 45 µg/mL
CCCCCCCCCCCOC(=O)CC(C[N+](C)(C)C)OC(=O)CCCCCC (centres unmarked) [ST 1036]	1.56 µg/mL	3.12 µg/mL	3.12 µg/mL	3.12 µg/mL	3.12 µg/mL	1.56 µg/mL	1.56 µg/mL	1.56 µg/mL	1.56 µg/mL	3.12 µg/mL	3.12 µg/mL	3.12 µg/mL	3.12 µg/mL	1.56 µg/mL	2.45 µg/mL	25 µg/mL	> 100 µg/mL	100 µg/mL	50 µg/mL	12.5 µg/mL	MIC (Proteus mirabilis (32)): > 100 µg/mL; MIC (Proteus morganii (D.S.)): > 100 µg/mL; MIC (Proteus vulgaris (UM)): > 100 µg/mL; MIC [17]: > 100 µg/mL; MIC [18]: 100 µg/mL; MIC (Salmonella typhi (J)): 25 µg/mL; MIC [19]: > 100 µg/mL; MIC (Gram- bacterial strains): 60.7 µg/mL
